# Measurements reported in PMC8989696, “Characterization of furathiocarb metabolism in in-vitro human liver microsomes and recombinant cytochrome P450 enzymes” (Toxicology Reports, 2022).
# Read-outs that look alike come from different tables or passages of the source.
# Tests used:
# [1] = Furathiocarb biotransformation kinetics in individual human hepatic microsomes (10 donors); type: in vitro ADME; conditions: for Variation between the highest and lowest formation rate / Metabolite formation rate (lowest to highest of 10 donors): at 300 µM furathiocarb; for Variation between the highest and lowest formation rate: 10 donors; for Metabolite formation rate (lowest to highest of 10 donors): individual human hepatic microsomes
# Protocol: The incubation mixture (ﬁnal volume of 200 µl of 0.1 M phosphate buffer) contained 50 and 100 µM furathiocarb, 0.15 mg pooled liver microsomal protein (n = 10), and 1 mM NADPH. The reaction was initiated by NADPH after a 2 min pre-incubation at + 37 °C and was incubated for 30 min at + 37 °C. The reaction stopped with ice-cold acetonitrile containing an internal standard.
# Enzyme kinetic parameters of both the microsomal samples and rCYP enzymes were measured. The incubation mixture contained furathiocarb (2.5, 10, 25, 50, 150 and 300 µM). Incubation times were 20 and 30 min for microsomal samples and rCYPs, respectively. Otherwise incubation mixtures and methods were the same as in metabolite identification. The rate of sum of furathiocarb metabolite formation was linear at least up to 0.15 mg protein/ml and 30 min incubation time in the standard experimental conditions.
# The standard incubation mixture contained 50 and 100 µM furathiocarb, 0.15 mg pooled liver microsomal protein (n = 10), and 1 mM NADPH in a ﬁnal volume of 200 µl of 0.1 M phosphate buffer (pH 7.4). Furathiocarb was prepared once a week in dimethylsulfoxide (DMSO; ﬁnal amount in the reaction medium 1.0%). After a 2-min incubation at +37 ◦C in a shaking incubator block, the reaction was started by adding NADPH. The mixture was incubated at +37 ◦C for 30 min and the reaction was stopped with 600 µl of ice-cold acetonitrile containing an internal standard. All incubations were carried out in triplicate.
# [2] = 54; cited from earlier work
# CYP3A4 [3] = conditions: cited from earlier work
# CYP2C9 = conditions: read-out: IC50, CYP2C9; range given jointly for CYP2C9, 2C19 and CYP2D6; no reference given; cited from earlier work
# 2C19 = conditions: read-out: IC50, 2C19; range given jointly for CYP2C9, 2C19 and CYP2D6; no reference given; cited from earlier work
# CYP2D6 = conditions: cited from earlier work
# CYPs 1A1/2 = conditions: read-out: IC50, CYP 1A1/2; cited from earlier work
# 2B6 = conditions: read-out: IC50, CYP 2B6; cited from earlier work
# CYP3A4 [4] = assay: in vitro; conditions: ketoconazole 100 µM, pooled human hepatic microsomes
# Protocol: Formation rates of metabolites were determined in the presence or absence of ketoconazole 100 µM.
# Each point represents the mean ± S.D of three separate determinations.
# [5] = read-out: IC50, CYP3A4 (MDZ-OH)
structure (smiles),measurement,setting,value
CC1(C)Oc2c(O)cccc2C1O (stereo not drawn) [3-hydroxy-7-phenolcarbofuran],Variation between the highest and lowest formation rate,[1],23 fold
same,Metabolite formation rate (lowest to highest of 10 donors),[1],0.02–0.52 nmol/(mg protein min)
CNC(=O)Oc1cccc2c1OC(C)(C)C2O (stereo not drawn) [3-hydroxycarbofuran],Variation between the highest and lowest formation rate,[1],10 fold
same,Metabolite formation rate (lowest to highest of 10 donors),[1],0.68 to 6.83 nmol/(mg protein min)
CC1(C)Oc2c(O)cccc2C1=O [3-keto-7-phenolcarbofuran],Metabolite amounts formed in HLM31,"[1]; HLM31, all furathiocarb concentrations used",below the limits of quantiﬁcation
CNC(=O)Oc1cccc2c1OC(C)(C)C2=O [3-ketocarbofuran],Variation between the highest and lowest formation rate,[1],54.4 fold
same,Metabolite formation rate (lowest to highest of 10 donors),[1],0.28–15.6 nmol/(mg protein min)
CC1(C)Cc2cccc(O)c2O1 [7-phenolcarbofuran],Variation between the highest and lowest formation rate,[1],2 fold
same,Metabolite formation rate (lowest to highest of 10 donors),[1],4.5–8.3 nmol/(mg protein min)
"CNC(=O)Oc1cccc2c1OC(C)(C)C2 [Carbofuran, carbofuran]","Toxic class, WHO classification of pesticides by hazard",[2],1b
CCCCN(CCCC)SN(C)C(=O)Oc1cccc2c1OC(C)(C)C2 [Carbosulfan],IC50,CYP3A4 [3]; [5],11.2 µM
same,IC50,CYP2C9,16 to 25 µM
same,IC50,2C19,16 to 25 µM
same,IC50,"CYP2D6; read-out: IC50, CYP2D6, range given jointly for CYP2C9, 2C19 and CYP2D6, no reference given",16 to 25 µM
CCOP(=S)(OCC)Oc1nc(Cl)c(Cl)cc1Cl [Chlorpyrifos],IC50,"CYP3A4 [3]; read-out: IC50, CYP 3A4",4 µM
same,IC50,"CYP2D6; read-out: IC50, CYP 2D6",3.3 µM
same,IC50,CYPs 1A1/2,2.9 µM
same,IC50,2B6,2.5 µM
CC(=O)N1CCN(c2ccc(OCC3COC(Cn4ccnc4)(c4ccc(Cl)cc4Cl)O3)cc2)CC1 (stereo not drawn) [Ketoconazole],"inhibition at 20 min, 100 µM","CYP3A4 [4]; human, microsomes, Inhibition of carbofuran metabolic pathway formation, various furathiocarb concentrations",32 to 86%
same,Effect on the formation of metabolite A,CYP3A4 [4],no effects
CCOC(=O)CCN(SN(C)C(=O)Oc1cccc2c1OC(C)(C)C2)C(C)C [benfuracarb],IC50,CYP3A4 [3]; [5],14.8 µM
